The nature of this assay: Inhibition of recombinant mouse N-terminal FLAG-tagged Notch1 (1704 to 2531 residues) expressed in human LS174T cells assessed as reduction in doxycycline-induced NICD expression after 12 hrs by Bright-Glo luciferase reporter gene assay. (In general: A reporter such as luciferase makes a cellular process visible.)
Usually IC50 stands for the concentration at which inhibition is half-maximal. In the case of `C[C@@H]1C[C@@]2(N=CCS2)[C@]2(O)O[C@@H]3C[C@@]4(C=O)[C@@H](CC[C@@H]5[C@@H]4CC[C@]4(C)[C@@H](C6=CC(=O)OC6)[C@H](O)C[C@]54O)C[C@H]3O[C@@H]2O1`, the concentration for half-maximal inhibition (IC50) was found to be 0.7 µM.

Turning to `C[C@@H]1C[C@@]2(NCCS2)[C@]2(O)O[C@@H]3C[C@@]4(C=O)[C@@H](CC[C@@H]5[C@@H]4CC[C@]4(C)[C@@H](C6=CC(=O)OC6)CC[C@]54O)C[C@H]3O[C@@H]2O1`, the IC50 is 2 µM.

With `C[C@@H]1C[C@@]2(NC(=O)CS2)[C@]2(O)O[C@@H]3C[C@@]4(C=O)[C@@H](CC[C@@H]5[C@@H]4CC[C@]4(C)[C@@H](C6=CC(=O)OC6)CC[C@]54O)C[C@H]3O[C@@H]2O1`, the IC50 turned out to be 0.3 µM. For the compound `COC(=O)[C@@]1(O)C[C@@H](C)O[C@H]1O[C@@H]1C[C@@H]2CC[C@@H]3[C@H](CC[C@]4(C)[C@@H](C5=CC(=O)OC5)[C@H](O)C[C@]34O)[C@@]2(C=O)C[C@H]1O`, the IC50 worked out at 17.3 µM. Next, `CC(=O)O[C@H]1C[C@@H](C)O[C@H]2O[C@@H]3C[C@@H]4CC[C@@H]5[C@H](CC[C@]6(C)[C@@H](C7=CC(=O)OC7)CC[C@]56O)[C@@]4(C=O)C[C@H]3O[C@]21O` [CHEBI:2867]: 0.3 µM; `C[C@@H]1C[C@H](O)[C@]2(O)O[C@@H]3C[C@@]4(C=O)[C@@H](CC[C@@H]5[C@@H]4CC[C@]4(C)[C@@H](C6=CC(=O)OC6)CC[C@]54O)C[C@H]3O[C@@H]2O1` [CHEBI:3329]: 0.8 µM; `C[C@@H]1CC(=O)[C@]2(O)O[C@@H]3C[C@@]4(C=O)[C@@H](CC[C@@H]5[C@@H]4CC[C@]4(C)[C@@H](C6=CC(=O)OC6)CC[C@]54O)C[C@H]3O[C@@H]2O1` [CHEBI:9913]: 2.4 µM. Take `C[C@@H]1C[C@@]2(N=CCS2)[C@]2(O)O[C@@H]3C[C@@]4(C=O)[C@@H](CC[C@@H]5[C@@H]4CC[C@]4(C)[C@@H](C6=CC(=O)OC6)CC[C@]54O)C[C@H]3O[C@@H]2O1` [Uscharin]: the IC50 stood at 0.4 µM.

Source of the values: BindingDB's records for doi:10.1021/acs.jnatprod.7b00282 (Chiba University, 2017).
